According to EP2298778A1, “IMIDAZOTHIAZOLE DERIVATIVE HAVING 4,7-DIAZASPIROÝ2.5¨OCTANE RING STRUCTURE” (Daiichi Sankyo Company, Limited, priority 2008, dated 2009):

experiment: Metabolic stability test (microsomal metabolism test); format: in vitro ADME; details: pH 7.4; human-derived liver microsomes, test compound remaining after addition of NADP+ and incubation at 37°C for 30 minutes; read-out: metabolic stability of T/C%
Protocol: (Test Example 3 Metabolic stability test) 100 µL of 100 mM phosphate buffer solution (pH 7.4) containing 3 µM test compound was added to 100 µL of reaction solution containing 100 mM phosphate buffer solution (pH 7.4), 30 mM glucose 6-phosphate, 10 mM MgCl2·6H2O, 3 units/mL glucose 6-phosphate 1-dehydrogenase, and 0.3 to 1.5 mgP/mL human liver microsomes and the mixture was incubated at 37°C for 20 minutes. Then, 70 µL of 100 mM phosphate buffer solution (pH 7.4) containing 3 mM NADP^+ was added and the mixture was incubated at 37°C for 30 minutes to conduct a microsomal metabolism test. The metabolic stability was calculated according to the following formula: T/C (%) = ((concentration of test compound after addition of NADP)^+and incubation for30minutes)/((concentration of test compound before addition of NADP)^+) × 100. [formula] […]

Remaining at 0.5 h, ≥ 50%:
CC(C)C1=C(C(=O)N2[C@H](C)CC[C@H]2C(=O)N2CCN(CCO)C3(CC3)C2)SC2=N[C@@](C)(c3ccc(Cl)nc3)[C@@H](c3ccc(Cl)c(F)c3)N21 [Example 13]
CC(C)C1=C(C(=O)N2[C@H](CF)CC[C@H]2C(=O)N2CCNC3(CC3)C2)SC2=N[C@@](C)(c3ccc(Cl)cc3)[C@@H](c3ccc(Cl)cc3)N21 [Example 38, 7-[(5S)-1-{[(5R,6S)-5,6-bis(4-chlorophenyl)-3-isopropyl-6-methyl-5,6-dihydroimidazo[2,1-b][1,3]thiazol-2-yl]carbonyl}-5-(fluoromethyl)-L-prolyl]-4,7-diazaspiro[2.5]octane]
CC(C)C1=C(C(=O)N2CCC[C@H]2C(=O)N2CC3(CC3)NC[C@H]2C)SC2=N[C@@](C)(c3ccc(Cl)nc3)[C@@H](c3ccc(Cl)c(F)c3)N21 [Example 64, (6R)-7-(1-{[(5R,6S)-5-(4-chloro-3-fluorophenyl)-6-(6-chloropyridin-3-yl)-3-isopropyl-6-methyl-5,6-dihydroimidazo[2,1-b][1,3]thiazol-2-yl]carbonyl}-L-prolyl)-6-methyl-4,7-diazaspiro[2.5]octane]
CC(C)C1=C(C(=O)N2[C@H](C)CC[C@H]2C(=O)N2CCN(C)C3(CC3)C2)SC2=N[C@@](C)(c3ccc(Cl)nc3)[C@@H](c3ccc(Cl)c(F)c3)N21 [Example 12, 7-[(5R)-1-{[(5R,6S)-5-(4-chloro-3-fluorophenyl)-6-(6-chloropyridin-3-yl)-3-isopropyl-6-methyl-5,6-dihydroimidazo[2,1-b][1,3]thiazol-2-yl]carbonyl}-5-methyl-L-prolyl]-4-methyl-4,7-diazaspiro[2.5]octane]
CC[C@@H]1CNC2(CC2)CN1C(=O)[C@@H]1CCCN1C(=O)C1=C(C(C)C)N2C(=N[C@@](C)(c3ccc(Cl)nc3)[C@H]2c2ccc(Cl)c(F)c2)S1 [Example 62, (6R)-7-(1-{[(5R,6S)-5-(4-chloro-3-fluorophenyl)-6-(6-chloropyridin-3-yl)-3-isopropyl-6-methyl-5,6-dihydroimidazo[2,1-b][1,3]thiazol-2-yl]carbonyl}-L-prolyl)-6-ethyl-4,7-diazaspiro[2.5]octane]
CC[C@H]1CNC2(CC2)CN1C(=O)[C@@H]1CC[C@@H](C)N1C(=O)C1=C(C(C)C)N2C(=N[C@@](C)(c3ccc(Cl)nc3)[C@H]2c2ccc(Cl)c(F)c2)S1 [Example 58, (6S)-7-[(5R)-1-{[(5R,6S)-5-(4-chloro-3-fluorophenyl)-6-(6-chloropyridin-3-yl)-3-isopropyl-6-methyl-5,6-dihydroimidazo[2,1-b][1,3]thiazol-2-yl]carbonyl}-5-methyl-L-prolyl]-6-ethyl-4,7-diazaspiro[2.5]octane]
CC(C)C1=C(C(=O)N2[C@H](C)CC[C@H]2C(=O)N2CCNC3(CC3)C2)SC2=N[C@@](C)(c3ccc(Cl)cc3)[C@@H](c3ccc(Cl)c(F)c3)N21 [Example 5, 7-[(5R)-1-{[(5R,6S)-5-(4-chloro-3-fluorophenyl)-6-(4-chlorophenyl)-3-isopropyl-6-methyl-5,6-dihydroimidazo[2,1-b][1,3]thiazol-2-yl]carbonyl}-5-methyl-L-prolyl]-4,7-diazaspiro[2.5]octane]
CCN(C(=O)C1=C(C(C)C)N2C(=N[C@@](C)(c3ccc(Cl)cc3)[C@H]2c2ccc(Cl)c(F)c2)S1)C1(C(=O)N2CCNC3(CC3)C2)CC1 [Example 52, (5R,6S)-5-(4-chloro-3-fluorophenyl)-6-(4-chlorophenyl)-N-[1-(4,7-diazaspiro[2.5]oct-7-ylcarbonyl)cyclopropyl]-N-ethyl-3-isopropyl-6-methyl-5,6-dihydroimidazo[2,1-b][1,3]thiazole-2-carboxamide]
CC(C)C1=C(C(=O)N2[C@H](CF)CC[C@H]2C(=O)N2CCN(C)C3(CC3)C2)SC2=N[C@@](C)(c3ccc(Cl)cc3)[C@@H](c3ccc(Cl)cc3)N21 [Example 39, 7-[(5S)-1-{[(5R,6S)-5,6-bis(4-chlorophenyl)-3-isopropyl-6-methyl-5,6-dihydroimidazo[2,1-b][1,3]thiazol-2-yl]carbonyl}-5-(fluoromethyl)-L-prolyl]-4-methyl-4,7-diazaspiro[2.5]octane]
CC(C)C1=C(C(=O)N2[C@H](C)CC[C@H]2C(=O)N2CCNC3(CC3)C2)SC2=N[C@@](C)(c3ccc(Cl)nc3)[C@@H](c3ccc(C(F)(F)F)c(F)c3)N21 [Example 74, 7-[(5R)-1-({(5R,6S)-6-(6-chloropyridin-3-yl)-5-[3-fluoro-4-(trifluoromethyl)phenyl]-3-isopropyl-6-methyl-5,6-dihydroimidazo[2,1-b][1,3]thiazol-2-yl}carbonyl)-5-methyl-L-prolyl]-4,7-diazaspiro[2.5]octane]
CC(C)C1=C(C(=O)N2[C@H](C)CC[C@H]2C(=O)N2C[C@@H](C)NC3(CC3)C2)SC2=N[C@@](C)(c3ccc(Cl)cc3)[C@@H](c3ccc(Cl)cc3)N21 [Example 16, (5R)-7-[(5R)-1-{[(5R,6S)-5,6-bis(4-chlorophenyl)-3-isopropyl-6-methyl-5,6-dihydroimidazo[2,1-b][1,3]thiazol-2-yl]carbonyl}-5-methyl-L-prolyl]-5-methyl-4,7-diazaspiro[2.5]octane]
CC(C)C1=C(C(=O)N2[C@@H](C)CC[C@H]2C(=O)N2CC3(CC3)NC[C@@H]2C)SC2=N[C@@](C)(c3ccc(Cl)nc3)[C@@H](c3ccc(Cl)c(F)c3)N21 [Example 65, (6S)-7-[(5S)-1-{[(5R,6S)-5-(4-chloro-3-fluorophenyl)-6-(6-chloropyridin-3-yl)-3-isopropyl-6-methyl-5,6-dihydroimidazo[2,1-b][1,3]thiazol-2-yl]carbonyl}-5-methyl-L-prolyl]-6-methyl-4,7-diazaspiro[2.5]octane]
CC(C)C1=C(C(=O)N2[C@H](C)CC[C@H]2C(=O)N2CCNC3(CC3)C2)SC2=N[C@@](C)(c3ccc(Cl)nc3)[C@@H](c3ccc(Cl)c(O)c3)N21 [Example 71, 2-chloro-5-[(5R,6S)-6-(6-chloropyridin-3-yl)-2-{[(2S,5R)-2-(4,7-diazaspiro[2.5]oct-7-ylcarbonyl)-5-methylpyrrolidin-1-yl]carbonyl}-3-isopropyl-6-methyl-5,6-dihydroimidazo[2,1-b][1,3]thiazol-5-yl]phenol]
CC(C)C1=C(C(=O)N2[C@H](C)CC[C@H]2C(=O)N2CCN(CCO)C3(CC3)C2)SC2=N[C@@](C)(c3ccc(Cl)nc3)[C@@H](c3ccc(Cl)cc3)N21 [Example 10, 2-{7-[(5R)-1-{[(5R,6S)-5-(4-chlorophenyl)-6-(6-chloropyridin-3-yl)-3-isopropyl-6-methyl-5,6-dihydroimidazo[2,1-b][1,3]thiazol-2-yl]carbonyl}-5-methyl-L-prolyl]-4,7-diazaspiro[2.5]oct-4-yl}ethanol]
CC[C@@H]1CC[C@@H](C(=O)N2CCNC3(CC3)C2)N1C(=O)C1=C(C(C)C)N2C(=N[C@@](C)(c3ccc(Cl)nc3)[C@H]2c2ccc(Cl)c(F)c2)S1 [Example 32, 7-[(5R)-1-{[(5R,6S)-5-(4-chloro-3-fluorophenyl)-6-(6-chloropyridin-3-yl)-3-isopropyl-6-methyl-5,6-dihydroimidazo[2,1-b][1,3]thiazol-2-yl]carbonyl}-5-ethyl-L-prolyl]-4,7-diazaspiro[2.5]octane]
CC(C)C1=C(C(=O)N2[C@H](CF)CC[C@H]2C(=O)N2CCNC3(CC3)C2)SC2=N[C@@](C)(c3ccc(Cl)nc3)[C@@H](c3ccc(Cl)c(F)c3)N21 [Example 40, 7-[(5S)-1-{[(5R,6S)-5-(4-chloro-3-fluorophenyl)-6-(6-chloropyridin-3-yl)-3-isopropyl-6-methyl-5,6-dihydroimidazo[2,1-b][1,3]thiazol-2-yl]carbonyl}-5-(fluoromethyl)-L-prolyl]-4,7-diazaspiro[2.5]octane]
CC(C)C1=C(C(=O)N2[C@H](C)CC[C@H]2C(=O)N2C[C@H](C)N(C)C3(CC3)C2)SC2=N[C@@](C)(c3ccc(Cl)nc3)[C@@H](c3ccc(Cl)c(F)c3)N21 [Example 20, (5S)-7-[(5R)-1-{[(5R,6S)-5-(4-chloro-3-fluorophenyl)-6-(6-chloropyridin-3-yl)-3-isopropyl-6-methyl-5,6-dihydroimidazo[2,1-b][1,3]thiazol-2-yl]carbonyl}-5-methyl-L-prolyl]-4,5-dimethyl-4,7-diazaspiro[2.5]octane]
CCOc1ccc([C@]2(C)N=C3SC(C(=O)N4[C@H](C)CC[C@H]4C(=O)N4CCNC5(CC5)C4)=C(C(C)C)N3[C@@H]2c2ccc(Cl)c(F)c2)cn1 [Example 73, 7-[(5R)-1-{[(5R,6S)-5-(4-chloro-3-fluorophenyl)-6-(6-ethoxypyridin-3-yl)-3-isopropyl-6-methyl-5,6-dihydroimidazo [2,1-b] [1,3]-thiazol-2-yl]-carbonyl}-5-methyl-L-prolyl]-4,7-diazaspiro[2.5]octane]
CC(C)C1=C(C(=O)N2C[C@@](C)(O)C[C@H]2C(=O)N2CC3(CC3)NC[C@@H]2C)SC2=N[C@@](C)(c3ccc(Cl)nc3)[C@@H](c3ccc(Cl)c(F)c3)N21 [Example 68, (3S,5S)-1-{[(5R,6S)-5-(4-chloro-3-fluorophenyl)-6-(6-chloropyridin-3-yl)-3-isopropyl-6-methyl-5,6-dihydroimidazo[2,1-b][1,3]thiazol-2-yl]carbonyl}-3-methyl-5-{[(6S)-6-methyl-4,7-diazaspiro[2.5]oct-7-yl]carbonyl}pyrrolidin-3-ol]
